For this experiment, the target named is T1, recominbant human tryptase, beta, from lung (Homo sapiens, UniProt P20231).
T1 construct: purchased Promega or Enzo Life Sciences G5631 or BML-SE418
Nature of the experiment: Inhibition of tryptase activity by monomers and multimers (Boc-Gln-Ala-Arg-AMC fluorescence). The format is biochemical. Conditions: monomers against tryptase. As to the method: Stock solutions of recominbant human tryptase, beta, from lung (Promega: catalog number G5631, or Enzo Life Sciences: catalog number BML-SE418) were made at 30 μM, in solution with 5 μM heparin sulfate and 1 M NaCl. Monomer tryptase inhibitor stock solutions were made at 50 mM in DMSO. Test substance plates were made at 1.2× the final concentration in assay buffer (50 mM HEPES, 150 mM NaCl, 100 μM EDTA, pH 7.4, 0.02% Tween-20). A final concentration of 1 nM tryptase was used. When required, test substances were diluted in water immediately before use in 10-fold serial dilutions. After the indicated incubation time, the test subtance-tryptase solution at 1.2× concentration, was diluted into assay buffer containing a final concentration of 200 μM N-tert-butoxycarbonyl-Gln-Ala-Arg-AMC HBr [AMC=7-amino-4-methylcoumarin] (Boc-Gln-Ala-Arg-AMC; Enzo Life Sciences: catalog number BML-P237) to a final volume of 50 μl in black opaque round bottom 96 well plates (Corning, catalog number 3792). The release of fluorescent AMC was immediately measured every 30 seconds over 15-30 minutes at an excitation wavelength of 367 nm, monitoring emission at 468 nm on a Spectramax M5 (Molecular Devices) microplate reader. The Softmax Pro (Molecular Devices) and Graphpad prism software were used to determine Vmax, and concentration-response curve IC50s, respectively.

The mark [1] stands for this setting: Table 5, read-out: Monomer IC50 range.
Where [2] appears, read: read-out: IC50 range group of additional monomers (boronic acid, benzooxaborole, ligands).
[3] abbreviates: entry marked (1:10), read-out: IC50 range group of additional monomers marked (1:10).

Structures are written as SMILES. Where a name gives a salt, the structure may show the parent alone. Read-outs that look alike come from different tables or passages of the source.

T1 sequence (P20231 31-275): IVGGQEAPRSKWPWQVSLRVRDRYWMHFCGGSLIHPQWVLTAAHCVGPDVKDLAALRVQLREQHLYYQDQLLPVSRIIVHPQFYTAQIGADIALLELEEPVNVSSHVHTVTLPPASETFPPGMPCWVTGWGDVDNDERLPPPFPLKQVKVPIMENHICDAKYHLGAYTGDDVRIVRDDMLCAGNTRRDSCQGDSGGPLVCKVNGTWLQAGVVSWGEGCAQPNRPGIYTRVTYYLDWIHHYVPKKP

With `NCc1cccc(C2CCN(C(=O)c3ccc(O)c(C(N)=O)c3)CC2)c1` [T66, 5-(4-(3-(aminomethyl)phenyl)piperidine-1-carbonyl)-2-hydroxybenzamide], the IC50 runs as follows: under setting [1], 0.1 to 1000 nM; under setting [2], 0.1 to 1000 nM.

Regarding `NCc1cccc(C2CCN(C(=O)c3cc4cc(O)ccc4[nH]3)CC2)c1` [T31A, (4-(3-(aminomethyl)phenyl)piperidin-1-yl)(5-hydroxy-1H-indol-2-yl)methanone], the IC50 under setting [1] is 0.1 to 1000 nM.

For the molecule `NCc1cccc(C2CCN(C(=O)c3cnc4c(B(O)O)cccc4c3)CC2)c1` [T156], the IC50 under setting [2] lay in the range of 0.1 to 1000 nM.

For the molecule `NCc1cccc(C2CCN(C(=O)c3cccc(NC(=O)C4CC5CCC4C(O)C5O)c3)CC2)c1` (racemic) [T141EXOANTI, (±) exo-N-(3-(4-(3-(aminomethyl)phenyl)piperidine-1-carbonyl)phenyl)-5,6-anti-dihydroxybicyclo[2.2.2]octane-2-carboxamide.], the half-inhibitory concentration (IC50) under setting [2] was 1000 to 10000 nM.

Take `Cc1c(CC(=O)N2CCC(c3cccc(CN)c3)CC2)c(=O)oc2cc(N(C)Cc3ccccc3B(O)O)ccc12` [T144]: under setting [2], the IC50 lay within 1000 to 10000 nM.

For `NCc1cccc(C2CCN(C(=O)c3cccc(NC(=O)C(O)C4(O)CCC4)c3)CC2)c1` (centres unmarked) [T21 (Diol), N-(3-(4-(3-(aminomethyl)phenyl)piperidine-1-carbonyl)phenyl)-2-hydroxy-2-(1-hydroxycyclobutyl)acetamide], the IC50 is, setting by setting: under setting [1], 0.1 to 1000 nM; under setting [2], 0.1 to 1000 nM.

For the molecule `NCc1ccc2c(c1)C1(CCN(C(=O)c3cccc(-c4cccc(B(O)O)c4)c3)CC1)CO2` [T35SPIRO, 3′-(5-(aminomethyl)-2H-spiro[benzofuran-3,4′-piperidine]-1′-ylcarbonyl)biphenyl-3-ylboronic acid], the 50% inhibitory concentration (IC50) reads like this: under setting [1], 1000 to 10000 nM; under setting [2], 1000 to 10000 nM.

For `NCc1cccc(C2CCN(C(=O)/C=C/c3cccc(B(O)O)c3)CC2)c1` [T34, (E)-3-(3-(4-(3-(aminomethyl)phenyl)piperidin-1-yl)-3-oxoprop-1-enyl)phenylboronic acid], the IC50 is 1000 to 10000 nM under setting [1] and 1000 to 10000 nM under setting [2].

On to `NCc1cccc(C2CCN(C(=O)/C=C/c3ccc(CO)c(O)c3)CC2)c1` [T41, (E)-1-(4-(3-(aminomethyl)phenyl)piperidin-1-yl)-3-(3-hydroxy-4-(hydroxymethyl)phenyl)prop-2-en-1-one], for which the IC50 lay in the range of 0.1 to 1000 nM under setting [1] and 0.1 to 1000 nM under setting [2].

`NCc1ccc(F)c(C2CCN(C(=O)c3cccc(-c4cccc(B(O)O)c4)c3)CC2)c1` [T35F, 3′-(4-(5-(aminomethyl)-2-fluorophenyl)piperidine-1-carbonyl)biphenyl-3-ylboronic acid]: the IC50 runs as follows: under setting [1], 0.1 to 1000 nM; under setting [2], 0.1 to 1000 nM.

As for `CN(Cc1ccccc1B(O)O)c1ccc2c(C(=O)N3CCC(c4cccc(CN)c4)CC3)cccc2c1` [T154], the IC50 under setting [2] fell in the range of 1000 to 10000 nM.

`CSc1sc(C(=O)N2CCC3(CC2)COc2ccc(CN)cc23)cc1-c1cccc2c1C(C)OB2O` (centres unmarked) [T117GEMMONO]: the IC50 under setting [2] lay within 0.1 to 1000 nM.

In the case of `NCc1cccc(C2CCN(C(=O)c3cccc(NC(=O)C(=O)C4(O)CCC4)c3)CC2)c1` [T21, N-(3-(4-(3-(aminomethyl)phenyl)piperidine-1-carbonyl)phenyl)-2-(1-hydroxycyclobutyl)-2-oxoacetamide], the IC50 under setting [1] is 0.1 to 1000 nM.

Turning to `Cc1cc(C(=O)N2CCC3(CC2)COc2ccc(CN)cc23)cc(CO)c1O` [T113SPIRO], the IC50 under setting [2] was in the range of 0.1 to 1000 nM.

As to `NCc1cccc(C2CCN(C(=O)c3cc(O)c(O)c(O)c3)CC2)c1` [T69, (4-(3-(aminomethyl)phenyl)piperidin-1-yl)(3,4,5-trihydroxyphenyl)methanone], the IC50 fell in the range of 1000 to 10000 nM under setting [1] and 1000 to 10000 nM under setting [2].

`CC(C)(C)ONC(=O)c1ccc(C(=O)N2CCC3(CC2)COc2ccc(CN)cc23)cc1O` [T75AOTBSPIRO]: the IC50 under setting [2] is 0.1 to 1000 nM.

For the molecule `CC(C)(O)c1ccc(C(=O)N2CCC(c3cccc(CN)c3)CC2)cc1O` [T126], under setting [2], the IC50 is 1000 to 10000 nM.

Consider `CC(O)(Cn1ccc2cc(C(=O)N3CCC(c4cccc(CN)c4)CC3)ccc21)C(=O)O` (centres unmarked) [T81, 3-(5-(4-(3-(aminomethyl)phenyl)piperidine-1-carbonyl)-1H-indol-1-yl)-2-hydroxy-2-methylpropanoic acid], for which the half-maximal inhibitory concentration (IC50) was in the range of 0.1 to 1000 nM under setting [1] and 0.1 to 1000 nM under setting [3].

Turning to `NCc1ccc2c(c1)C1(CCN(C(=O)c3ccc(O)c(O)c3)CC1)CO2` [T2SPIRO, (5-(aminomethyl)-2H-spiro[benzofuran-3,4′-piperidine]-1′-yl)(3,4-dihydroxyphenyl)methanone], the IC50 is, setting by setting: under setting [1], 0.1 to 1000 nM; under setting [2], 0.1 to 1000 nM.

With `NCc1cccc(C2CCN(C(=O)c3cccc(NC(=O)C4CC5CCC4C(O)C5O)c3)CC2)c1` (racemic) [T141ENDOANTI, (±) endo-N-(3-(4-(3-(aminomethyl)phenyl)piperidine-1-carbonyl)phenyl)-5,6-anti-dihydroxybicyclo[2.2.2]octane-2-carboxemide.], the IC50 under setting [2] is 0.1 to 1000 nM.

For the molecule `NCc1ccc(C(=O)NCc2ccc(OCC(=O)N3C[C@H](O)[C@@H](O)C3)cc2)cc1` [CF1, 4-(aminomethyl)-N-(4-(2-((3S,4S)-3,4-dihydroxypyrrolidin-1-yl)-2-oxoethoxy)benzyl)benzamide hydrochloride], the half-inhibitory concentration (IC50) under setting [1] was 10000 to 65000 nM.

In the case of `NCc1cccc(C2CCN(C(=O)c3cccc(NC(=O)c4cccc(O)c4O)c3)CC2)c1` [T70, N-(3-(4-(3-(aminomethyl)phenyl)piperidine-1-carbonyl)phenyl)-2,3-dihydroxybenzamide], the IC50 under setting [1] was in the range of 0.1 to 1000 nM and the IC50 under setting [2] was in the range of 0.1 to 1000 nM.

`NCc1cccc(C2CCN(C(=O)c3ccc(Cl)c(Cl)c3)CC2)c1` [CF5, (4-(3-(aminomethyl)phenyl)piperidin-1-yl)(3,4-dichlorophenyl)methanone]: the IC50 under setting [1] fell in the range of 0.1 to 1000 nM.

As for `NCc1cccc(C2CCN(C(=O)c3cc4ccc(O)c(O)c4oc3=O)CC2)c1` [T102], the IC50 under setting [1] was 0.1 to 1000 nM and the IC50 under setting [3] lay within 0.1 to 1000 nM.

Take `CN(C)c1ccc(B(O)O)cc1-c1cccc(C(=O)N2CCC3(CC2)COc2ccc(CN)cc23)c1` [T155SPIRO]: under setting [2], the IC50 fell in the range of 1000 to 10000 nM.

For `NCc1cccc(C2CCN(C(=O)c3cc(O)c(O)cc3O)CC2)c1` [T77, (4-(3-(aminomethyl)phenyl)piperidin-1-yl)(2,4,5-trihydroxyphenyl)methanone], the IC50 under setting [1] lay in the range of 10000 to 65000 nM and the IC50 under setting [2] lay within 10000 to 65000 nM.

`CC(C)(C)OC(=O)NCc1cccc(C2CCN(C(=O)c3cccc(NC(=O)C(=O)C(C)(C)O)c3)CC2)c1` [T55, tert-butyl 3-(1-(3-(3-hydroxy-3-methyl-2-oxobutanamido)benzoyl)piperidin-4-yl)benzylcarbamate]: the IC50 under setting [1] was in the range of 0.1 to 1000 nM.

As to `CONC(=O)c1cc(C)cc(C(=O)N2CCC(c3cccc(CN)c3)CC2)c1O` [T136A], the IC50 under setting [2] was 0.1 to 1000 nM.

On to `CONC(=O)c1ccc(C(=O)N2CCC(c3cccc(CN)c3)CC2)cc1O` [T75A, 4-(4-(3-(aminomethyl)phenyl)piperidine-1-carbonyl)-2-hydroxy-N-methoxybenzamide], for which the IC50 is 0.1 to 1000 nM under setting [1] and 0.1 to 1000 nM under setting [2].

As to `Cc1cc(C(=O)N2CCC(c3cccc(CN)c3)CC2)cc(-c2cccc(B(O)O)c2)c1C` [T107], the IC50 under setting [2] was in the range of 1000 to 10000 nM.

Consider `NCc1cccc(C2CCN(C(=O)c3cccc(/C=C/B(O)O)c3)CC2)c1` [T14, (E)-3-(4-(3-(aminomethyl)phenyl)piperidine-1-carbonyl)styrylboronic acid], for which the IC50 under setting [1] lay in the range of 0.1 to 1000 nM.

For orientation: IC50 means the point on the concentration scale where inhibition reaches its midpoint.

Source of the values: patent US11970448B2, “Monomers capable of dimerizing in an aqueous solution, and methods of using same” (CORNELL UNIVERSITY, priority 2011, dated 2024).
